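Test compounds were applied to cells in 96-well plates for 48 hours at 5 doses. GI50 is the concentration that inhibits growth by half.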 The source made the active and inactive calls. Cut-off read from the data, not from the text of the source: active = GI50 up to about 1.1 µM and inactive = higher.
How the values were obtained:
Assay in all cases: NCI tumour cell line growth inhibition, 48 h
786-0 = system: 786-0
CAKI-1 = system: CAKI-1
COLO 205 = system: COLO 205
DU-145 = system: DU-145
HT-29 = system: HT-29
IGROV-1 = system: IGROV-1
M14 = system: M14
MOLT-4 = system: MOLT-4
Malme-3M = system: Malme-3M
NCI/ADR-RES = system: NCI/ADR-RES
RXF 393 = system: RXF 393
SF-539 = system: SF-539
SK-MEL-5 = system: SK-MEL-5
T47D = system: T47D
UACC-257 = system: UACC-257
UO-31 = system: UO-31
NCI-H522 = system: NCI-H522
SK-MEL-28 = system: SK-MEL-28
SW-620 = system: SW-620
U-251 = system: U-251

Measured: GI50

O=C(CCc1ccccc1)ON1C(=S)C(c2ccccc2)(c2ccccc2)N=C1Sc1ccccc1
inactive: 786-0 26.5 µM | CAKI-1 74.1 µM | COLO 205 35.5 µM | DU-145 58.2 µM | HT-29 24.5 µM | IGROV-1 6.53 µM | M14 82.6 µM | MOLT-4 4 µM | Malme-3M 48.1 µM | NCI/ADR-RES 33.7 µM | RXF 393 > 100 µM | SF-539 44.6 µM | SK-MEL-5 37.5 µM | T47D 59.4 µM | UACC-257 > 100 µM | UO-31 60.3 µM

O=S1(=O)c2ccccc2C(=NO)c2ccccc21
inactive: 786-0 > 100 µM | CAKI-1 > 100 µM | COLO 205 > 100 µM | DU-145 > 100 µM | HT-29 > 100 µM | IGROV-1 64 µM | M14 > 100 µM | MOLT-4 30.3 µM | NCI-H522 37.1 µM | NCI/ADR-RES 57.3 µM | RXF 393 24.8 µM | SF-539 > 100 µM | SK-MEL-28 > 100 µM | SK-MEL-5 70.3 µM | SW-620 > 100 µM | T47D 80 µM | U-251 > 100 µM | UACC-257 > 100 µM | UO-31 28.2 µM

CC[C@]1(Cc2ccc(OC)c(OC)c2)C2CC(C(=O)OC)ON2O[C@H](OCc2ccccc2)[C@@H]1OC(C)=O (stereo partly drawn)
inactive: 786-0 > 100 µM | CAKI-1 > 100 µM | COLO 205 > 100 µM | DU-145 > 100 µM | HT-29 > 100 µM | IGROV-1 42.4 µM | M14 > 100 µM | MOLT-4 > 100 µM | Malme-3M > 100 µM | NCI-H522 > 100 µM | NCI/ADR-RES > 100 µM | RXF 393 > 100 µM | SK-MEL-28 > 100 µM | SK-MEL-5 > 100 µM | SW-620 > 100 µM | T47D 47 µM | U-251 > 100 µM | UACC-257 > 100 µM | UO-31 > 100 µM

CC(=O)Oc1c(OC(C)C)c(C)c(O[Si](C(C)C)(C(C)C)C(C)C)c2[nH]c3ccccc3c12
inactive: 786-0 > 100 µM | CAKI-1 67.1 µM | COLO 205 > 100 µM | DU-145 > 100 µM | HT-29 38.5 µM | IGROV-1 > 100 µM | M14 > 94.6 µM | MOLT-4 12 µM | NCI-H522 34.6 µM | NCI/ADR-RES > 100 µM | RXF 393 20.2 µM | SF-539 > 100 µM | SK-MEL-28 > 100 µM | SK-MEL-5 > 100 µM | SW-620 > 83.4 µM | T47D 44.4 µM | U-251 99.5 µM | UACC-257 > 62.4 µM | UO-31 > 100 µM

CN[C@H]1CC[C@]23C[C@]24CC[C@]2(C)[C@@H]([C@H](C)N(C)C)CC[C@@]2(C)[C@@H]4CC[C@H]3C1(C)C
inactive: 786-0 6.78 µM | CAKI-1 21.9 µM | COLO 205 12.1 µM | DU-145 14.4 µM | HT-29 2.85 µM | IGROV-1 16.8 µM | M14 12.2 µM | MOLT-4 16.5 µM | Malme-3M 17.1 µM | NCI-H522 17.2 µM | NCI/ADR-RES 18.5 µM | SF-539 11.2 µM | SK-MEL-28 12.4 µM | SK-MEL-5 15.1 µM | SW-620 15.4 µM | T47D 14.6 µM | U-251 13.7 µM | UACC-257 15.1 µM | UO-31 11.9 µM

COC(=O)[C@]1(CCC(C)=O)C(=O)C=CN([C@H](C)c2ccccc2)[C@@H]1Cc1ccc(OC)c(OCc2ccccc2)c1I
inactive: 786-0 17.8 µM | CAKI-1 29.2 µM | COLO 205 17.9 µM | DU-145 16.7 µM | HT-29 14.6 µM | IGROV-1 12.6 µM | M14 15 µM | MOLT-4 12.4 µM | NCI-H522 20 µM | NCI/ADR-RES 29.2 µM | RXF 393 11.4 µM | SF-539 16.6 µM | SK-MEL-28 35.2 µM | SK-MEL-5 13.9 µM | SW-620 32.9 µM | T47D 13.5 µM | U-251 17.3 µM | UACC-257 16.7 µM | UO-31 15.2 µM

COc1cccc2c1-c1nc(N)c3c(OC)cccc3c1C2=O
inactive: 786-0 35.9 µM | CAKI-1 > 100 µM | COLO 205 > 100 µM | DU-145 > 100 µM | HT-29 28.8 µM | IGROV-1 > 100 µM | M14 > 100 µM | MOLT-4 53.5 µM | Malme-3M > 100 µM | NCI-H522 > 100 µM | NCI/ADR-RES > 100 µM | SF-539 > 100 µM | SK-MEL-28 > 100 µM | SK-MEL-5 > 100 µM | SW-620 > 100 µM | T47D > 100 µM | U-251 > 100 µM | UACC-257 > 100 µM | UO-31 45.1 µM

O=c1cc(CC(O)(C(F)(F)Cl)C(F)(F)Cl)[nH]n1-c1ccccc1
inactive: 786-0 > 100 µM | COLO 205 > 100 µM | DU-145 > 100 µM | HT-29 > 100 µM | IGROV-1 > 100 µM | M14 > 100 µM | MOLT-4 > 100 µM | Malme-3M > 100 µM | NCI/ADR-RES > 100 µM | RXF 393 > 100 µM | SF-539 > 100 µM | SK-MEL-28 > 100 µM | SK-MEL-5 > 100 µM | SW-620 > 100 µM | T47D 52.6 µM | U-251 > 100 µM | UACC-257 > 100 µM | UO-31 78.9 µM

O=Cc1c(-c2ccccc2)nc2ccccc2c1O
inactive: 786-0 49.2 µM | CAKI-1 43.4 µM | COLO 205 26.7 µM | DU-145 > 100 µM | HT-29 39.9 µM | IGROV-1 53.8 µM | M14 68.2 µM | MOLT-4 55.7 µM | Malme-3M 54 µM | NCI-H522 50.8 µM | NCI/ADR-RES 52.1 µM | SF-539 45.6 µM | SK-MEL-28 > 100 µM | SK-MEL-5 17.9 µM | SW-620 50.6 µM | T47D 64.6 µM | U-251 74.3 µM | UACC-257 72.8 µM | UO-31 85.7 µM

O=C(O)/C(=C\c1ccc(O)cc1)c1cccc2ccccc12
inactive: 786-0 > 100 µM | CAKI-1 > 100 µM | DU-145 > 100 µM | HT-29 > 100 µM | IGROV-1 > 100 µM | M14 > 100 µM | MOLT-4 > 100 µM | Malme-3M > 100 µM | NCI-H522 > 100 µM | NCI/ADR-RES > 100 µM | RXF 393 > 100 µM | SK-MEL-28 > 100 µM | SK-MEL-5 > 100 µM | SW-620 > 100 µM | T47D > 100 µM | U-251 > 100 µM | UACC-257 > 100 µM | UO-31 > 100 µM

CSCCC(NC(=O)C(Cc1c[nH]c2ccccc12)NC(=O)CCNC(=O)OC(C)(C)C)C(=O)NC(CC(=O)O)C(=O)NC(Cc1ccccc1)C(N)=O (stereo not drawn)
inactive: 786-0 > 50 µM | CAKI-1 > 50 µM | COLO 205 > 50 µM | DU-145 > 50 µM | HT-29 > 50 µM | IGROV-1 > 50 µM | M14 > 50 µM | MOLT-4 > 50 µM | NCI-H522 > 50 µM | NCI/ADR-RES > 50 µM | RXF 393 > 50 µM | SF-539 > 50 µM | SK-MEL-28 > 50 µM | SK-MEL-5 > 50 µM | SW-620 > 50 µM | T47D > 50 µM | U-251 > 50 µM | UACC-257 > 50 µM

Cc1nc(Nc2ccccc2Cl)sc1C(=O)CC(=O)C(N)=O
inactive: 786-0 58.9 µM | CAKI-1 > 100 µM | COLO 205 21.2 µM | DU-145 > 100 µM | HT-29 18.8 µM | IGROV-1 39.3 µM | M14 75.3 µM | MOLT-4 26.4 µM | NCI-H522 1.96 µM | NCI/ADR-RES 31.3 µM | RXF 393 48.8 µM | SF-539 76.4 µM | SW-620 29 µM | T47D > 100 µM | U-251 41.9 µM | UACC-257 > 100 µM | UO-31 21.7 µM

O=C1c2ccccc2C(=O)N1C1(C(=O)NC2(C(=O)O)CCCC2)CCCC1
inactive: 786-0 > 100 µM | CAKI-1 > 100 µM | COLO 205 > 100 µM | DU-145 > 100 µM | HT-29 > 100 µM | IGROV-1 > 100 µM | M14 > 100 µM | MOLT-4 > 100 µM | Malme-3M > 100 µM | NCI-H522 > 100 µM | NCI/ADR-RES > 100 µM | RXF 393 > 100 µM | SK-MEL-28 > 100 µM | SK-MEL-5 > 100 µM | SW-620 > 100 µM | T47D > 100 µM | U-251 > 100 µM | UACC-257 > 100 µM | UO-31 > 100 µM

CN(C(=O)C1=CCC2(CC1)OCCO2)c1ccccc1OS(=O)(=O)C(F)(F)F
inactive: 786-0 24.3 µM | CAKI-1 > 100 µM | COLO 205 > 100 µM | DU-145 > 100 µM | M14 > 100 µM | MOLT-4 > 100 µM | NCI/ADR-RES 53.3 µM | RXF 393 > 100 µM | SK-MEL-28 > 100 µM | SK-MEL-5 > 100 µM | SW-620 > 100 µM | T47D > 100 µM | U-251 > 100 µM | UACC-257 > 100 µM | UO-31 > 100 µM

CC(C)c1cccc(C(=O)NCCN(C)C)c1[N+](=O)[O-]
inactive: 786-0 > 100 µM | CAKI-1 > 100 µM | COLO 205 > 100 µM | DU-145 > 100 µM | HT-29 > 100 µM | IGROV-1 > 100 µM | M14 > 100 µM | MOLT-4 > 100 µM | Malme-3M > 100 µM | NCI-H522 > 100 µM | NCI/ADR-RES > 100 µM | SF-539 > 100 µM | SK-MEL-28 > 100 µM | SK-MEL-5 > 100 µM | SW-620 > 100 µM | T47D > 100 µM | U-251 > 100 µM | UACC-257 > 100 µM | UO-31 > 100 µM

— ChEMBL document CHEMBL1201862, “PubChem BioAssay data set” (2004)
